Earlier results, collected in PMC8025584, “Identification of multipotent drugs for COVID-19 therapeutics with the evaluation of their SARS-CoV2 inhibitory activity” (Computational and Structural Biotechnology Journal, 2021).
Where a name gives a salt, the structure may show the parent alone. Read-outs that look alike come from different tables or passages of the source. Where no end group is shown, it is not given here.

System: differentially expressed human proteins in COVID-19
Details: cited from earlier work
[1] = gene TNF, drug-gene interaction listed in DGIdb export, ref DGIdb
[2] = gene CACNA1A, drug-gene interaction listed in DGIdb export, ref DGIdb
[3] = gene F5, drug-gene interaction listed in DGIdb export, ref DGIdb
[4] = gene HCK, drug-gene interaction listed in DGIdb export, ref DGIdb

## CNC(=O)c1ccc(Nc2ncc(C(F)(F)F)c(NCc3nccnc3N(C)S(C)(=O)=O)n2)cc1 [DEFACTINIB]
Gene PTK2B, ref DGIdb
  interaction_types: inhibitor

## CC1(C)OC(c2ccc(S(N)(=O)=O)cc2)=C(c2cccc(F)c2)C1=O [POLMACOXIB]
Gene CA1, ref DGIdb
  interaction_types: inhibitor

## COc1cc(C)c(/C=C/C(C)=C/C=C/C(C)=C/C(=O)O)c(C)c1C [ACITRETIN]
Gene RXRB, ref DGIdb
  interaction_types: agonist

## NS(=O)(=O)c1cc2c(cc1Cl)N=CNS2(=O)=O [CHLOROTHIAZIDE]
Gene CA1, ref DGIdb
  interaction_types: inhibitor

## CN[C@@H](C)[C@@H](O)c1ccccc1 [PSEUDOEPHEDRINE]
[1]
  interaction_types: inhibitor

## O=C(CCc1ccc(O)cc1)c1c(O)cc(O)cc1O [PHLORETIN]
Gene AQP9, ref DGIdb
  interaction_types: inhibitor

## RILONACEPT
Gene IL1RN, ref DGIdb
  interaction_types: binder

## NS(=O)(=O)c1cc2c(cc1C(F)(F)F)NC(Cc1ccccc1)NS2(=O)=O (stereo not shown) [BENDROFLUMETHIAZIDE]
Gene CA1, ref DGIdb
  interaction_types: inhibitor

## CC/C=C\C/C=C\C/C=C\C/C=C\C/C=C\C/C=C\CCC(=O)O [DOCONEXENT]
Gene RXRB, ref DGIdb
  interaction_types: activator

## BASILIXIMAB
Gene IL2RG, ref DGIdb
  interaction_types: inhibitor

## O=c1cc(-c2ccccc2)oc2cc(O)cc(O)c12 [CHRYSIN]
Gene CYP1A1, ref DGIdb
  interaction_types: inhibitor

## O=P(O)(O)C(Cl)(Cl)P(=O)(O)O [CLODRONIC ACID]
Gene SLC25A4, ref DGIdb
  interaction_types: inhibitor

## CNC(=O)c1cc(Cl)c(OC(C)(C)C(=O)O)cc1OC[C@@H](O)CN1CCC2(CC1)Cc1cc(Cl)ccc1O2 [AZD4818]
Gene CCR1, drug-gene interaction listed in DGIdb export, ref DGIdb
  interaction_types: antagonist

## CCCN(c1ccncc1F)n1cc(C)c2ccccc21 [[…]]
Gene KCNH7, ref DGIdb
  interaction_types: blocker

## LVVYPWT [SPINORPHIN]
Gene FPR1, ref DGIdb
  interaction_types: antagonist

## REGRAMOSTIM
Gene CSF2RB, ref DGIdb
  interaction_types: agonist

## CCC1=C[C@@H]2CN(C1)Cc1c([nH]c3ccccc13)[C@@](C(=O)OC)(c1cc3c(cc1OC)N(C)[C@H]1[C@@](O)(C(=O)OC)[C@H](OC(C)=O)[C@]4(CC)C=CCN5CC[C@]31[C@@H]54)C2 [VINORELBINE TARTRATE]
Gene TUBA4A, ref DGIdb
  interaction_types: inhibitor

## CCCc1c2oc(C(=O)O)cc(=O)c2cc2c(=O)cc(C(=O)O)n(CC)c12 [NEDOCROMIL, reference compound]
Gene FPR1, ref DGIdb
  interaction_types: antagonist

## CNC(=O)[C@@H](NC(=O)[C@H](CC(C)C)[C@H](O)C(=O)NO)C(C)(C)C
Gene MMP8, ref DGIdb
  interaction_types: inhibitor

## CCCCCC/C=C\CCCCCCCCCC(=O)N[C@H]1[C@H](OC[C@H]2O[C@H](OP(=O)(O)O)[C@H](NC(=O)CC(=O)CCCCCCCCCCC)[C@@H](OCCCCCCCCCC)[C@@H]2O)O[C@H](COC)[C@@H](OP(=O)(O)O)[C@@H]1OCC[C@@H](CCCCCCC)OC [ERITORAN TETRASODIUM]
Gene LY96, ref DGIdb
  interaction_types: antagonist

## C[C@H](NC(=O)C(=O)Nc1ccccc1C(C)(C)C)C(=O)N[C@@H](CC(=O)O)C(=O)COc1c(F)c(F)cc(F)c1F
Gene CASP4, ref DGIdb
  interaction_types: inhibitor
Gene CASP5, ref DGIdb
  interaction_types: inhibitor

## C[C@H]1CC(CN)(CC(=O)O)C[C@@H]1C [ATAGABALIN]
[2]
  interaction_types: modulator

## COc1cc2nc(N3CCN(C(=O)c4ccco4)CC3)nc(N)c2cc1OC [PRAZOSIN]
Gene KCNH7, ref DGIdb
  interaction_types: inhibitor

## CC(=O)O[C@H]1C(=O)[C@@]2(C)[C@H]([C@H](OC(=O)c3ccccc3)[C@]3(O)C[C@H](OC(=O)[C@H](O)[C@@H](NC(=O)c4ccccc4)c4ccccc4)C(C)=C1C3(C)C)[C@]1(OC(C)=O)CO[C@@H]1C[C@@H]2O [Paclitaxel, reference compound]
Gene TUBA4A, ref DGIdb
  interaction_types: inhibitor

## DROTRECOGIN ALFA (ACTIVATED)
[3]
  interaction_types: inhibitor

## COc1ccc(-c2ccc3cc(C(=O)O)ccc3c2)cc1C12CC3CC(CC(C3)C1)C2
Gene JUN, drug-gene interaction listed in DGIdb export, ref DGIdb
  interaction_types: antagonist
Gene RXRB, ref DGIdb
  interaction_types: agonist

## C1CCC2(C1)C1CN(CC3CC3)CC2CN(CC2CC2)C1
Gene KCNH7, ref DGIdb
  interaction_types: blocker

## CC(=O)/N=c1/sc(S(N)(=O)=O)nn1C [METHAZOLAMIDE]
Gene CA1, ref DGIdb
  interaction_types: inhibitor

## CN(C)C(=O)C(CCN1CCC(O)(c2ccc(Cl)cc2)CC1)(c1ccccc1)c1ccccc1 [LOPERAMIDE]
[2]
  interaction_types: inhibitor

## CC(=O)O[C@@]12CO[C@@H]1C[C@H](O)[C@@]1(C)C(=O)[C@H](O)C3=C(C)[C@@H](OC(=O)[C@H](O)[C@@H](NC(=O)OC(C)(C)C)c4ccccc4)C[C@@](O)([C@@H](OC(=O)c4ccccc4)[C@H]21)C3(C)C [DOCETAXEL, reference compound]
Gene TUBA4A, ref DGIdb
  interaction_types: inhibitor

## COc1cc(Nc2c(C#N)cnc3cc(OCCCN4CCN(C)CC4)c(OC)cc23)c(Cl)cc1Cl [BOSUTINIB]
[4]
  interaction_types: inhibitor

## C[C@H]1[C@@H](O)O[C@@H]2O[C@@]3(C)CC[C@H]4[C@H](C)CC[C@@H]1[C@@]24OO3 [ARTENIMOL]
Gene PFN1, ref DGIdb
  interaction_types: ligand

## N[C@@H](CCC(=O)N[C@@H](CS)C(=O)NCC(=O)O)C(=O)O [GLUTATHIONE]
  interaction_types: cofactor

## O=c1nc(OC[C@@H]2COCCO2)cc2n1CCc1cc(C#CC3CC3)ccc1-2 [GLPG-1205]
Gene GPR84, ref DGIdb
  interaction_types: antagonist

## CEPROTIN
[3]
  interaction_types: inactivator

## C=CC(=O)N1CCC[C@@H](n2nc(-c3ccc(Oc4ccccc4)cc3)c3c(N)ncnc32)C1 [IBRUTINIB]
[4]
  interaction_types: inhibitor

## Nc1cnc(-c2cc(Cl)cc(Cl)c2Cl)c(N)n1 [[…]]
[2]
  interaction_types: blocker

## N#Cc1ccc(C2CCCc3cncn32)cc1 (stereo not shown) [FADROZOLE]
  interaction_types: inhibitor

## Cc1oncc1C(=O)Nc1ccc(C(F)(F)F)cc1 [LEFLUNOMIDE]
Gene PTK2B, ref DGIdb
  interaction_types: antagonist

## CC(C)[C@H](O)C(=O)N[C@@H](C)C(=O)N[C@@H]1C(=O)N(C)CCc2ccccc21
Gene PSENEN, ref DGIdb
  interaction_types: inhibitor

## COc1ccc(/C=C\c2cc(OC)c(OC)c(OC)c2)cc1OP(=O)(O)O [FOS[…]]
Gene TUBA4A, ref DGIdb
  interaction_types: inhibitor

## CC(C)c1ccc2oc3nc(N)c(C(=O)O)cc3c(=O)c2c1 [AMLEXANOX, reference compound]
Gene S100A12, ref DGIdb
  interaction_types: antagonist
Gene S100A13, drug-gene interaction listed in DGIdb export, ref DGIdb
  interaction_types: antagonist

## CCC[C@@H](C)C[C@H](N)CC(=O)O [IMAGABALIN]
[2]
  interaction_types: modulator

## CCOC(=O)/C=C(C)/C=C/C=C(C)/C=C/c1c(C)cc(OC)c(C)c1C [ETRETINATE]
Gene RXRB, ref DGIdb
  interaction_types: agonist

## COc1ccc(CCN(C)CCCC(C#N)(c2ccc(OC)c(OC)c2)C(C)C)cc1OC (stereo not shown)
[2]
  interaction_types: inhibitor

## C[C@@H](C(=O)O)c1ccc(-c2ccccc2)c(F)c1 [TARENFLURBIL]
Gene PSENEN, ref DGIdb
  interaction_types: modulator

## Nc1ncnc2c1ncn2[C@@H]1O[C@H](COP(=O)(O)O)[C@@H](O)[C@H]1O [ADENOSINE PHOSPHATE]
Gene PRKAB1, ref DGIdb
  interaction_types: activator

## CN(C)CC/C=C1/c2ccccc2COc2ccc(CC(=O)O)cc21 [OLOPATADINE, reference compound]
Gene S100A12, ref DGIdb
  interaction_types: antagonist

## BAMINERCEPT
Gene TNFSF14, ref DGIdb
  interaction_types: inhibitor

## CCOC(=O)C1=C(COCCN)NC(C)=C(C(=O)OC)C1c1ccccc1Cl (stereo not shown) [AMLODIPINE]
Gene CA1, ref DGIdb
  interaction_types: inhibitor

## Nc1ccc(SC[C@@H]2CO[C@](CCc3ccc(Cl)cc3)(Cn3ccnc3)O2)cc1 [AZALANSTAT]
Gene CYP19A1, ref DGIdb
  interaction_types: inhibitor

## COc1ccc2c(c1)[C@]13CCCC[C@@H]1[C@H](C2)N(C)CC3 [DEXTROMETHORPHAN]
Gene CYBB, ref DGIdb
  interaction_types: inhibitor

## CN1CC[C@]23c4c5ccc(O)c4O[C@H]2[C@@H](O)C=C[C@H]3[C@H]1C5 [MORPHINE]
  interaction_types: activator

## ETANERCEPT
[1]
  interaction_types: inhibitor¦antibody

## CC(C)COCC(CN(Cc1ccccc1)c1ccccc1)N1CCCC1 (stereo not shown) [BEPRIDIL]
[2]
  interaction_types: inhibitor

## COc1ccc(S(=O)(=O)N(Cc2cccnc2)[C@@H](C(=O)NO)C(C)C)cc1 [CGS-27023A]
Gene MMP8, ref DGIdb
  interaction_types: inhibitor

## NS(=O)(=O)c1cc2c(cc1Cl)NCNS2(=O)=O [HYDROCHLOROTHIAZIDE, reference compound]
Gene CA1, ref DGIdb
  interaction_types: inhibitor

## COC1=CC(c2cc3ccccc3[nH]2)=N/C1=C\c1[nH]c(C)cc1C [OBATOCLAX MESYLATE]
Gene BCL2A1, ref DGIdb
  interaction_types: inhibitor

## THROMBIN
[3]
  interaction_types: activator

## C=CCC1=C(C)C(OC(=O)[C@@H]2[C@@H](C=C(C)C)C2(C)C)CC1=O (stereo partly shown) [BIOALLETHRIN]
[2]
  interaction_types: blocker

## Cn1cc(C2=C(c3cn(C)c4cc([N+](=O)[O-])ccc34)C(=O)NC2=O)c2ccccc21 [ENMD-981693]
Gene FGR, ref DGIdb
  interaction_types: inhibitor
[4]
  interaction_types: inhibitor

## COC(=O)c1ccc2c(c1)NC(=O)/C2=C(\Nc1ccc(N(C)C(=O)CN2CCN(C)CC2)cc1)c1ccccc1 [NINTEDANIB, reference compound]
Gene FGR, ref DGIdb
  interaction_types: inhibitor
[4]
  interaction_types: inhibitor

## Nc1ncc(-c2cnn(CCO)c2)c2scc(-c3ccc(NC(=O)Nc4cccc(F)c4)cc3)c12 [ILORASERTIB]
Gene FGR, ref DGIdb
  interaction_types: inhibitor
[4]
  interaction_types: inhibitor

## O=S(=O)(N[C@H](CO)C(C(F)(F)F)C(F)(F)F)c1ccc(Cl)s1 [BEGACESTAT]
Gene PSENEN, ref DGIdb
  interaction_types: inhibitor

## TRASTUZUMAB EMTANSINE
  interaction_types: inhibitor

## O=C1CCC(N2C(=O)c3ccccc3C2=O)C(=O)N1 (stereo not shown) [THALIDOMIDE, reference compound]
[1]
  interaction_types: inhibitor

## CCOc1ccc2nc(S(N)(=O)=O)sc2c1 [ETHOXZOLAMIDE]
Gene CA1, ref DGIdb
  interaction_types: inhibitor
